The values below come from patent publication US20180118721A1, “PYRIMIDINE DERIVATIVES” (Merck Patent GmbH, priority 2015, published 2018).

The structures appear in SMILES notation.

The target in the assay is T1, humanMTH1 (aminoacids 42 to 197) (Homo sapiens, UniProt P36639).
T1 construct: humanMTH1 (aminoacids 42 to 197); His tag at the N-terminus; purchased Abnova ab99390; host or cells: E. coli
The assay is described as follows: Binding affinities and kinetics on MTH1 surfaces by surface plasmon resonance (SPR). The conditions noted are these: on MTH1.

As for `CNc1cc(-c2cccc(Cl)c2Cl)nc(N)n1` [TH-287, reference compound], the residence time reads like this: (calculated on the basis of the KD values) under 1 min; (value in brackets) 0.9 min.

As a reminder, the residence time is the mean lifetime of the complex, commonly the reciprocal of the off-rate.
